Data on 24 compounds can be found in patent publication US10336762B2 (priority 2017, dated 2019).

Structures can show the parent of a compound that is named as a salt. Where two headings read alike, the source gives them in different places.

In general, EC50 refers to the concentration needed to bring the measured effect to its halfway point. For orientation: IC50 means the concentration at which inhibition is half-maximal. The low end stands for inhibition by little substance, the high end for a need for much substance.

In test [1] the test system is TNFα. Description: cells. Type of test: cell-based, human. Conditions: read-out: EC50 TNF.
For test [2], the target named is IRAK4 enzyme (Homo sapiens (Human), UniProt Q9NWZ3). Description: biochemical. Type of test: biochemical.
Chain of IRAK4 enzyme (Q9NWZ3 whole entry): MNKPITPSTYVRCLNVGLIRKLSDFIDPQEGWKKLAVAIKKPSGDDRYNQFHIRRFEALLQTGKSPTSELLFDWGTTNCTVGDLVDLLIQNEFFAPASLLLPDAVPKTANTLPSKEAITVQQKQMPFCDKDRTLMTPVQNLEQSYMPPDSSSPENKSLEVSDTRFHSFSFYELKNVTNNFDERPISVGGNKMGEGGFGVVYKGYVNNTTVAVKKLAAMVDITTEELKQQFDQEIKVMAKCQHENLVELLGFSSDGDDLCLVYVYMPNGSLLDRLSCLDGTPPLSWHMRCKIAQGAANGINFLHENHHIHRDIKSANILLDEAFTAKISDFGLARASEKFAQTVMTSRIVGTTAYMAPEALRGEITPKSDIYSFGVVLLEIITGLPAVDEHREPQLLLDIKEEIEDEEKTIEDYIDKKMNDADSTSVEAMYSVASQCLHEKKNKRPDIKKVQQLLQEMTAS
[3] abbreviates: Homo sapiens, Monocyte, LPS-stimulated human monocytes, TNFα content.
Where [4] appears, read: IRAK4 enzyme, TR-FRET, 500 μM ATP.

Regarding `CC(C)(O)[C@H](F)CNC(=O)c1cnc(-c2ccc3cc(C#N)cnn23)cc1N[C@H]1CC[C@H](NS(C)(=O)=O)CC1` [Example 315, 6-(3-cyanopyrrolo[1,2-b]pyridazin-7-yl)-N-((R)-2-fluoro-3-hydroxy-3-methylbutyl)-4-(((1r,4R)-4-(methylsulfonamido)cyclohexyl)amino)nicotinamide], the EC50 in test [1] (setting [3]) came out at 59 nM. The compound also had an IC50 in test [2] (setting [4]) below 1 nM.

Turning to `CC(C)(O)[C@H](F)CNC(=O)c1cnc(-c2ccc3cc(C#N)cnn23)cc1N[C@H]1CC[C@H](N)CC1` [Example 316, 4-(((1r,4R)-4-aminocyclohexyl)amino)-6-(3-cyanopyrrolo[1,2-b]pyridazin-7-yl)-N-((R)-2-fluoro-3-hydroxy-3-methylbutyl)nicotinamide hydrochloride], the EC50 in test [1] (Homo sapiens, Monocyte) is 136 nM. For the same compound, the IC50 in test [2] was below 1 nM.

Regarding `CC(=O)NC12CCC(Nc3cc(-c4ccc5cc(C#N)cnn45)ncc3C(=O)NC[C@@H](F)C(C)(C)O)(CC1)CC2` [Example 317, (R)-4-((4-acetamido-bicyclo[2.2.2]octan-1-yl)amino)-6-(3-cyano-pyrrolo[1,2-b]pyridazin-7-yl)-N-(2-fluoro-3-hydroxy-3-methylbutyl) nicotinamide], the EC50 in test [1] (setting [3]) came out at 11 nM. The compound further showed an IC50 in test [2] (setting [4]) below 1 nM.

As for `CC(C)(O)[C@H](F)CNC(=O)c1cnc(-c2ccc3cc(C#N)cnn23)cc1NC12CCC(N)(CC1)CC2` [Example 318, (R)-4-((4-amino-bicyclo[2.2.2]octan-1-yl)amino)-6-(3-cyano-pyrrolo[1,2-b]pyridazin-7-yl)-N-(2-fluoro-3-hydroxy-3-methylbutyl)nicotinamide], the EC50 in test [1] (setting [3]) was 23 nM. The half-inhibitory concentration (IC50) in test [2] (setting [4]) was below 1 nM.

Turning to `CC(C)(O)[C@H](F)CNC(=O)c1cnc(-c2ccc3cc(C#N)cnn23)cc1N[C@H]1CC[C@@H](NC(=O)C(F)(F)F)CC1` [Example 319, 6-(3-cyanopyrrolo[1,2-b]pyridazin-7-yl)-N-((R)-2-fluoro-3-hydroxy-3-methyl-butyl)-4-(((1s,4S)-4-(2,2,2-trifluoroacetamido)cyclo-hexyl)amino)nicotinamide], the EC50 in test [1] (setting [3]) was 2220 nM. In test [2] (setting [4]), this compound showed a half-inhibitory concentration (IC50) of 19 nM.

On to `CC(=O)N[C@H]1CC[C@@H](Nc2cc(-c3ccc4cc(C#N)cnn34)ncc2C(=O)NC[C@@H](F)C(C)(C)O)CC1` [Example 320, 4-(((1s,4S)-4-acetamidocyclohexyl)amino)-6-(3-cyano-pyrrolo[1,2-b]pyridazin-7-yl)-N-((R)-2-fluoro-3-hydroxy-3-methylbutyl) nicotinamide], for which, in test [1] (setting [3]), the EC50 stood at 1910 nM. This compound also yielded an IC50 in test [2] (setting [4]) of 3 nM.

Regarding `CC(C)(O)[C@H](F)CNC(=O)c1cnc(-c2ccc3cc(C#N)cnn23)cc1NC1CC1CO` (stereo partly drawn) [Example 321, 6-(3-cyanopyrrolo[1,2-b]pyridazin-7-yl)-N-((R)-2-fluoro-3-hydroxy-3-methylbutyl)-4-((2-(hydroxymethyl)cyclo-propyl)amino)nicotinamide], in test [1] (LPS-stimulated human monocytes, TNFα content), the EC50 came to 38 nM. The same compound had an IC50 in test [2] (setting [4]) below 1 nM.

As for `CC(C)Nc1cc(-c2ccc3cc(C#N)cnn23)ncc1C(=O)N[C@H]1CCOC[C@@H]1F` [Example 322, 6-(3-cyanopyrrolo[1,2-b]pyridazin-7-yl)-N-((3R,4S)-3-fluorotetrahydro-2H-pyran-4-yl)-4-(isopropylamino) nicotinamide], in test [1] (setting [3]), the EC50 stood at 169 nM. In test [2] (setting [4]), this compound had an IC50 of 5 nM.

Turning to `CC(C)Nc1cc(-c2ccc3cc(C#N)cnn23)ncc1C(=O)N[C@@H]1CCOC[C@H]1F` [Example 323, 6-(3-cyanopyrrolo[1,2-b]pyridazin-7-yl)-N-((3S,4R)-3-fluoro-tetrahydro-2H-pyran-4-yl)-4-(isopropylamino) nicotinamide], the EC50 in test [1] (setting [3]) stood at 187 nM. In addition, the IC50 in test [2] (setting [4]) worked out at 5 nM.

For the compound `C[C@@H](O)C(=O)N1CCC(Nc2cc(-c3ccc4cc(C#N)cnn34)ncc2C(=O)NC[C@@H](F)C(C)(C)O)CC1` [Example 324, 6-(3-cyanopyrrolo[1,2-b]pyridazin-7-yl)-N-((R)-2-fluoro-3-hydroxy-3-methylbutyl)-4-((1-((R)-2-hydroxy-propanoyl)piperidin-4-yl)amino)nicotinamide], the EC50 in test [1] (setting [3]) came to 157 nM. This compound also gave an IC50 in test [2] (setting [4]) of 2 nM.

As to `CC1(C(=O)N2CCC(Nc3cc(-c4ccc5cc(C#N)cnn45)ncc3C(=O)NC[C@@H](F)C(C)(C)O)CC2)COC1` [Example 325, (R)-6-(3-cyanopyrrolo[1,2-b]pyridazin-7-yl)-N-(2-fluoro-3-hydroxy-3-methylbutyl)-4-((1-(3-methyloxetane-3-carbonyl)piperidin-4-yl)amino)nicotinamide], the EC50 in test [1] (setting [3]) amounted to 228 nM. In test [2] (setting [4]), the IC50 came out at 3 nM.

For `CC(=O)N[C@H]1CC[C@H](Nc2cc(-c3ccc4cc(C#N)cnn34)ncc2C(=O)NC[C@@H](F)C(C)(C)O)CC1` [Example 326, 4-(((1r,4R)-4-acetamidocyclohexyl)amino)-6-(3-cyanopyrrolo[1,2-b]pyridazin-7-yl)-N-((R)-2-fluoro-3-hydroxy-3-methylbutyl)nicotinamide], the EC50 in test [1] (Homo sapiens, Monocyte) was 56 nM. In addition, the half-maximal inhibitory concentration (IC50) in test [2] is below 1 nM.

`CC(C)(O)[C@H](F)CNC(=O)c1cnc(-c2ccc3cc(C#N)cnn23)cc1NC1CCNC(=O)C1` (stereo partly drawn) [Example 327, 6-(3-cyanopyrrolo[1,2-b]pyridazin-7-yl)-N-((R)-2-fluoro-3-hydroxy-3-methylbutyl)-4-((2-oxo-piperidin-4-yl)amino)nicotinamide]: in test [1] (setting [3]), the EC50 turned out to be 738 nM. This compound also had a 50% inhibitory concentration (IC50) in test [2] (setting [4]) of 1 nM.

As for `COCC(=O)N1CCC(Nc2cc(-c3ccc4cc(C#N)cnn34)ncc2C(=O)NC[C@@H](F)C(C)(C)O)CC1` [Example 328, (R)-6-(3-cyanopyrrolo[1,2-b]pyridazin-7-yl)-N-(2-fluoro-3-hydroxy-3-methylbutyl)-4-((1-(2-methoxyacetyl)piperidin-4-yl)amino)nicotinamide], in test [1] (setting [3]), the EC50 is 300 nM. The same compound registered an IC50 in test [2] (setting [4]) of 6 nM.

Consider `CC(C)(O)[C@H](F)CNC(=O)c1cnc(-c2ccc3cc(C#N)cnn23)cc1NC1CCN(CC(F)(F)F)CC1` [Example 329, (R)-6-(3-cyanopyrrolo[1,2-b]pyridazin-7-yl)-N-(2-fluoro-3-hydroxy-3-methylbutyl)-4-((1-(2,2,2-trifluoroethyl)piperidin-4-yl)amino)nicotinamide], for which the EC50 in test [1] (setting [3]) came to 62 nM. Further, in test [2] (setting [4]), the midpoint of inhibition, the IC50, lay at 1 nM.

As for `CC(C)Nc1cc(-c2ccc3cc(C#N)cnn23)ncc1C(=O)NCC(O)C(C)(C)O` (stereo not drawn) [Example 330, 6-(3-cyanopyrrolo[1,2-b]pyridazin-7-yl)-N-(2,3-dihydroxy-3-methyl-butyl)-4-(isopropylamino) nicotinamide], the EC50 in test [1] (setting [3]) amounted to 171 nM. The compound further came in with an IC50 in test [2] (setting [4]) of 6 nM.

For the compound `N#Cc1cnn2c(-c3cc(NC45CCC(O)(CC4)CC5)c(C(=O)NCC(=O)N4CC(F)(F)C4)cn3)ccc2c1` [Example 331, 6-(3-cyanopyrrolo[1,2-b]pyridazin-7-yl)-N-(2-(3,3-difluoroazetidin-1-yl)-2-oxoethyl)-4-((4-hydroxybicyclo[2.2.2]octan-1-yl)amino) nicotinamide], the EC50 in test [1] (setting [3]) was found to be 25 nM. Besides, the IC50 in test [2] (setting [4]) was below 1 nM.

Take `CC(C)Nc1cc(-c2ccc3cc(C#N)cnn23)ncc1C(=O)NCC(=O)C(C)(C)O` [Example 332, 6-(3-cyanopyrrolo[1,2-b]pyridazin-7-yl)-N-(3-hydroxy-3-methyl-2-oxobutyl)-4-(isopropyl-amino)nicotinamide]: the EC50 in test [1] (setting [3]) turned out to be 43 nM. Moreover, the 50% inhibitory concentration (IC50) in test [2] (setting [4]) is below 1 nM.

Regarding `CN(C)C(=O)CNC(=O)c1cnc(-c2ccc3cc(C#N)cnn23)cc1NC12CCC(O)(CC1)CC2` [Example 333, 6-(3-cyanopyrrolo[1,2-b]pyridazin-7-yl)-N-(2-(dimethylamino)-2-oxo-ethyl)-4-((4-hydroxy-bicyclo[2.2.2]octan-1-yl)amino)nicotinamide], in test [1] (setting [3]), the EC50 turned out to be 87 nM. The IC50 in test [2] (setting [4]) is below 1 nM.

For `CNC(=O)CNC(=O)c1cnc(-c2ccc3cc(C#N)cnn23)cc1NC12CCC(O)(CC1)CC2` [Example 334, 6-(3-cyanopyrrolo[1,2-b]pyridazin-7-yl)-4-((4-hydroxybicyclo[2.2.2]octan-1-yl)amino)-N-(2-(methylamino)-2-oxoethyl)nicotinamide], in test [1] (setting [3]), the EC50 amounted to 292 nM. The compound also yielded a 50% inhibitory concentration (IC50) in test [2] (setting [4]) below 1 nM.

For `CC(C)(O)[C@H](F)CNC(=O)c1cnc(-c2ccc3cc(C#N)cnn23)cc1Nc1nc(Cc2ccccc2)ns1` [Example 335, (R)-4-((3-benzyl-1,2,4-thiadiazol-5-yl)amino)-6-(3-cyanopyrrolo[1,2-b]pyridazin-7-yl)-N-(2-fluoro-3-hydroxy-3-methylbutyl)nicotinamide], in test [1] (setting [3]), the EC50 worked out at 100 nM. Moreover, in test [2] (setting [4]), the IC50 amounted to 3 nM.

With `CC(C)(O)[C@H](F)CNC(=O)c1cnc(-c2ccc3cc(C#N)cnn23)cc1Nc1nnc(Cc2ccccc2)o1` [Example 336, (R)-4-((5-benzyl-1,3,4-oxadiazol-2-yl)amino)-6-(3-cyanopyrrolo[1,2-b]pyridazin-7-yl)-N-(2-fluoro-3-hydroxy-3-methyl-butyl)nicotinamide], the EC50 in test [1] (setting [3]) was 522 nM. Inhibition in test [2] (setting [4]) was half-maximal at 5 nM (IC50).

As for `CC(C)(O)[C@H](F)CNC(=O)c1cnc(-c2ccc3cc(C#N)cnn23)cc1Nc1nc(Cc2ccccc2)cs1` [Example 337, (R)-4-((4-benzylthiazol-2-yl)amino)-6-(3-cyanopyrrolo[1,2-b]pyridazin-7-yl)-N-(2-fluoro-3-hydroxy-3-methylbutyl)nicotinamide], the EC50 in test [1] (setting [3]) amounted to 73 nM. Moreover, in test [2] (setting [4]), 5 nM corresponded to half-maximal inhibition (IC50).

`CNC(=O)c1csc(Nc2cc(-c3ccc4cc(C#N)cnn34)ncc2C(=O)NC[C@@H](F)C(C)(C)O)n1` [Example 338, (R)-2-((2-(3-cyanopyrrolo[1,2-b]pyridazin-7-yl)-5-((2-fluoro-3-hydroxy-3-methylbutyl)carbamoyl)pyridin-4-yl)amino)-N-methylthiazole-4-carboxamide]: the EC50 in test [1] (setting [3]) was 304 nM. In test [2] (setting [4]), this compound showed an IC50 of 3 nM.
